The source of these data is US20200131123A1, “INDOLE-FORMAMIDE DERIVATIVE, PREPARATION METHOD THEREFOR AND USE THEREOF IN MEDICINE” (Jiangsu Hengrui Medicine Co., Ltd., priority 2017, published 2020).

Molecules are shown by their SMILES. Like-named read-outs stand apart in the source and are kept apart here.

The target of assay [1] is T1, RORγ LBD (Homo sapiens, UniProt P51449).
T1 construct: RORγ LBD was diluted with the complete buffer D to a concentration of 1 ng/μL; GST; purchased AB Vector
T1 sequence (P51449 269-508 limits assumed): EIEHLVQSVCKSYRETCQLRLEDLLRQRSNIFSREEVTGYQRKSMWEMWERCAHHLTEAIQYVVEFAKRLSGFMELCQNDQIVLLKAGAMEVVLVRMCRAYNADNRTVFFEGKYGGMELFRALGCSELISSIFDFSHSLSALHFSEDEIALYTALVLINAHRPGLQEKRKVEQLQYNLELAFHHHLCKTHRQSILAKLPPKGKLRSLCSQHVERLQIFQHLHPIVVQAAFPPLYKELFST
Kind of assay: LanthaScreen TR-FRET RORγ co-activation system, effect on in vitro activity of RORγ. The format is biochemical. Conditions: for EC50: TR-FRET RORγ co-activation, for agonist the value refers to EC50, read-out: EC50/IC50 a (nM): EC50 (agonist); for Type: agonist or inverse agonist of RORγ. Here is the method: 1. LanthaScreen® TR-FRET RORγ co-activation system (Life Technologies)
A complete buffer D (complete TR-FRET Coregulator) (Life Technologies) was formulated first, containing a final concentration of 5 mM DTT. The final concentration of DMSO was 2%. The test compound was serially diluted to 2× final concentration in the complete buffer D containing 2% of DMSO, and the maximum dose was […]. The test compound was added to the test wells of a 384-well plate (PerkinElmer) in 10 μl/well. Two parallel control wells were set up for each test compound at the same concentration. 4×RORγ LBD (AB Vector) was formulated. RORγ LBD was diluted with the complete buffer D to a concentration of 1 ng/μL, and added to the test wells of 384-well plate in 5 μl/well. The negative control well was 5 μL of complete buffer D without RORγ LBD. A mixed solution comprising 0.6 μM of fluorescein-D22 (4×) and 8 nM of terbium(Tb)-labeled anti-GST antibody (4×) (Life Technologies) was formulated with the complete buffer D, and 5 μL of the mixed solution was added to the 384-well plate. The total reaction system was 20 μL. The 384-well plate was gently shaken on a shaker, and incubated at room temperature in the dark for 2-4 hours.
Fluorescence readings were determined with Tecan Infinite M1000. The logarithmic curve of the ratio of the emission wavelength of 520 nm/495 nm to the concentration of the compound was plotted by GraphPad Prism 6.0 software. EC50/IC50 value of the test compound was calculated.

The test system of assay [2] is IL-17A. Kind of assay: IL-17A enzyme-linked immune quantitative assay in cytostim-activated human PBMC. The format is cell-based. Conditions: 72 h; IL-17A in supernatant of human PBMC, 3 days after drug treatment. The protocol:
1. Human peripheral blood mononuclear cells (PBMC) (Zenbio)
5. Human IL-17 enzyme-linked immunosorbent kit (R&D System)
Frozen human peripheral blood mononuclear cells (PBMC) were rapidly resuscitated in pre-warmed lymphocyte culture medium, and centrifuged at 1000 rpm for 10 min. The cell culture supernatant was removed. The cells were gently suspended in TexMACS medium and counted. The T cell activation reagent cytostim (10 μl/ml) was added in proportion to the cell suspension. Then, the cells were seeded in a 96-well cell culture plate at a density of 1×10^5 peripheral blood mononuclear cells/well. The test compounds were diluted in gradient with TexMACS medium, and added respectively to the test wells, with 2-3 parallel wells per group. A negative control well containing only cells without cytostim was provided to obtain the background reading. The cell culture plate was placed in a incubator at 5% carbon dioxide, 37° C. to incubate for 3 days. The cell culture supernatant was collected 3 days after drug treatment, and centrifuged to remove the suspension. Then, IL-17A in the supernatant was quantified with IL-17A enzyme-linked immunosorbent kit. EC50 values of the test compounds were calculated with GraphPad Prism 6.0.

The mark [3] stands for this setting: for agonist the value refers to Emax(%), read-out: Emax(%)/maximum inhibition rate b: Emax(%) (agonist).

As to `CCS(=O)(=O)c1ccc(C(CO)NC(=O)c2ccc3c(c2)cc(Cc2ccccc2C(F)(F)F)n3C(C)C)cc1` (stereo not shown) [Example 1, N-(1-(4-(Ethylsulfonyl)phenyl)-2-hydroxyethyl)-1-isopropyl-2-(2-(trifluoromethyl)benzyl)-1H-indole-5-carboxamide], in assay [1], the EC50 was determined as 64 nM and the Type result is recorded as “Agonist”. For the same compound, the Emax in assay [1] (setting [3]) turned out to be 94%.
For the compound `CCS(=O)(=O)c1ccc(C(CO)NC(=O)c2ccc3c(c2)cc(Cc2ccc(Cl)cc2C(F)(F)F)n3CCF)cc1` (stereo not shown) [Example 2, 2-(4-Chloro-2-(trifluoromethyl)benzyl)-N-(1-(4-(ethylsulfonyl)phenyl)-2-hydroxyethyl)-1-(2-fluoroethyl)-1H-indole-5-carboxamide], in assay [2], the EC50 stood at 90 nM and the Emax came to 82%.
For the compound `CCS(=O)(=O)c1ccc([C@@H](CO)NC(=O)c2ccc3c(c2)cc(Cc2ccc(Cl)cc2C(F)(F)F)n3CCF)cc1` [Example 3, (S)-2-(4-Chloro-2-(trifluoromethyl)benzyl)-N-(1-(4-(ethylsulfonyl)phenyl)-2-hydroxyethyl)-1-(2-fluoroethyl)-1H-indole-5-carboxamide], in assay [2], the EC50 was 169 nM and the Emax amounted to 136%.
Turning to `CCS(=O)(=O)c1ccc([C@H](CO)NC(=O)c2cc3cc(Cc4ccc(Cl)cc4C(F)(F)F)n(CCF)c3cc2F)cc1` [Example 5, (R)-2-(4-Chloro-2-(trifluoromethyl)benzyl)-N-(1-(4-(ethylsulfonyl)phenyl)-2-hydroxyethyl)-6-fluoro-1-(2-fluoroethyl)-1H-indole-5-carboxamide], in assay [1], the EC50 was 334 nM and the Type result was “Agonist”. Besides, in assay [1] (setting [3]), the Emax stood at 110%.
The like results for `CCS(=O)(=O)c1ccc([C@H](CO)NC(=O)c2cc3cc(Cc4ccc(Cl)cc4C(F)(F)F)n(C4CC4)c3cc2F)cc1` [Example 6, (R)-2-(4-Chloro-2-(trifluoromethyl)benzyl)-1-cyclopropyl-N-(1-(4-(ethylsulfonyl)phenyl)-2-hydroxyethyl)-6-fluoro-1H-indole-5-carboxamide] were, in that order, 79 nM, “Agonist” and 105%.
Take `CCS(=O)(=O)c1ccc([C@H](CO)NC(=O)c2ccc3c(c2)cc(CN2CCOCC2C(F)(F)F)n3CCF)cc1` (stereo partly drawn) [Example 7, N—((R)-1-(4-(Ethylsulfonyl)phenyl)-2-hydroxyethyl)-1-(2-fluoroethyl)-2-((3-(trifluoromethyl)morpholino)methyl)-1H-indole-5-carboxamide]: in assay [1], the EC50 turned out to be 80 nM and the Type entry is on record as “Agonist”. Moreover, in assay [1] (setting [3]), the Emax was determined as 84%.
`CCS(=O)(=O)c1ccc([C@H](CO)NC(=O)c2ccc3c(c2)cc(Cc2ccc(Cl)cc2C(F)(F)F)n3C2CC2)cc1` [Example 11, (R)-2-(4-Chloro-2-(trifluoromethyl)benzyl)-1-cyclopropyl-N-(1-(4-(ethylsulfonyl)phenyl)-2-hydroxyethyl)-1H-indole-5-carboxamide]: the values for the EC50 in assay [1] and in assay [2] were 22 nM and 276 nM, respectively. For the same compound, the Emax in assay [1] (setting [3]) turned out to be 94%; in assay [2], 72%.
With `O=C(N[C@@H](CO)c1ccc(S(=O)(=O)NC2CC2)cc1)c1ccc2c(c1)cc(Cc1ccc(Cl)cc1C(F)(F)F)n2CCF` [Example 12, (R)-2-(4-Chloro-2-(trifluoromethyl)benzyl)-N-(1-(4-(N-cyclopropylsulfamoyl)phenyl)-2-hydroxyethyl)-1-(2-fluoroethyl)-1H-indole-5-carboxamide], in assay [1], the EC50 came out at 13 nM and the Type entry is given as “Agonist”. Further, the Emax in assay [1] (setting [3]) stood at 89%. In assay [2], this compound had an EC50 of 25 nM and an Emax of 71%.
The like results for `O=C(N[C@@H](CO)c1ccc(S(=O)(=O)CC2CC2)cc1)c1ccc2c(c1)cc(Cc1ccc(Cl)cc1C(F)(F)F)n2CCF` [Example 13, (R)-2-(4-Chloro-2-(trifluoromethyl)benzyl)-N-(1-(4-((cyclopropylmethyl)sulfonyl)phenyl)-2-hydroxyethyl)-1-(2-fluoroethyl)-1H-indole-5-carboxamide] were, in that order, 69 nM, “Agonist”, 96%, 27 nM and 65%.
The like results for `O=C(N[C@@H](CO)c1ccc(S(=O)(=O)CC2CC2)cc1)c1ccc2c(c1)cc(Cc1ccc(F)cc1C(F)(F)F)n2CCF` [Example 14, (R)—N-(1-(4-((Cyclopropylmethyl)sulfonyl)phenyl)-2-hydroxyethyl)-2-(4-fluoro-2-(trifluoromethyl)benzyl)-1-(2-fluoroethyl)-1H-indole-5-carboxamide] were, in that order, 138 nM, “Agonist”, 99%, 42 nM and 99%.
In the case of `O=C(N[C@@H](CO)c1ccc(S(=O)(=O)C2CC2)cc1)c1ccc2c(c1)cc(Cc1ccc(Cl)cc1C(F)(F)F)n2CCF` [Example 15, (R)-2-(4-Chloro-2-(trifluoromethyl)benzyl)-N-(1-(4-(cyclopropylsulfonyl)phenyl)-2-hydroxyethyl)-1-(2-fluoroethyl)-1H-indole-5-carboxamide], in assay [1], the EC50 was found to be 124 nM and the Type entry is on record as “Agonist”. Further, the Emax in assay [1] (setting [3]) is 109%.
As for `CCS(=O)(=O)c1ccc([C@H](COC)NC(=O)c2ccc3c(c2)cc(Cc2ccc(Cl)cc2C(F)(F)F)n3CCF)cc1` [Example 16, (R)-2-(4-Chloro-2-(trifluoromethyl)benzyl)-N-(1-(4-(ethylsulfonyl)phenyl)-2-methoxyethyl)-1-(2-fluoroethyl)-1H-indole-5-carboxamide], in assay [1], the EC50 is 18 nM and the Type result is listed as “Agonist”. In addition, in assay [1] (setting [3]), the Emax stood at 97%. In assay [2], this compound had an EC50 of 8 nM and an Emax of 99%.
Turning to `CCS(=O)(=O)c1ccc([C@H](CO)NC(=O)c2ccc3c(c2)cc(Cc2ccc(C(F)(F)F)cc2)n3CCF)cc1` [Example 17, (R)-2-(4-(trifluoromethyl)benzyl)-N-(1-(4-(ethylsulfonyl)phenyl)-2-hydroxyethyl)-1-(2-fluoroethyl)-1H-indole-5-carboxamide], in assay [1], half-maximal inhibition (IC50) required 29 nM and the Type result was “Inverse agonist”. Moreover, in assay [1] (read-out: Emax(%)/maximum inhibition rate b: maximum inhibition rate (inverse agonist)), the Emax stood at 67%.
